Data reported in paper PMC7968374 (Bioorganic & medicinal chemistry, 2021).

Molecular target: Hsp27c (Homo sapiens, UniProt P04792)
Assay: STD-NMR binding experiment
Details: Figure S2

Sequence of Hsp27c (P04792 79-176): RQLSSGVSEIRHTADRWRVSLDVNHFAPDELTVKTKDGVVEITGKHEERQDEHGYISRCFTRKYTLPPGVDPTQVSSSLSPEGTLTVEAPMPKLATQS

Nc1cccnc1Oc1ccc(F)cc1F [Compound 4, 2-(2,4-difluorophenoxy)pyridin-3-amine]
binding to Hsp27c in STD-NMR: bound
